# Results from article PMC9792776 (Frontiers in Pharmacology, 2022).
# pEC50, pKi: −log10 of the molar value. Like-named read-outs stand apart in the source and are kept apart here.
# How the values were obtained:
# [1] = In vitro Caco-2 cell permeability; format: in vitro ADME; conditions: human
# Source text: (§1) The first-order absorption model has different absorption rate constants (ka) and fraction available from dosage form (fa) to simulate absorption processes in fasting and fed states. […] Caco-2 (human colorectal adenocarcinoma) cells are used to model the intestinal epithelial barrier. The Simcyp (Version 19.0, Certara Inc., Sheffield, UK) minimal PBPK, which treats all organs other than the intestine and liver as a single compartment ([Rowland Yeo et al., 2010]), was selected, along with a single adjusting compartment (SAC) distribution model. The SAC is a nonphysiologic compartment that permits adjustment to the drug concentration profile in the systemic compartment ([Ke et al., 2016]).
# P-gp = P-gp (Homo sapiens, UniProt P08183); experiment: P-gp inhibition (Ki calculated from IC50); format: in vitro ADME; conditions: calculated with IC50, substrate concentration and substrate Km
# P-gp, sequence (P08183 whole entry): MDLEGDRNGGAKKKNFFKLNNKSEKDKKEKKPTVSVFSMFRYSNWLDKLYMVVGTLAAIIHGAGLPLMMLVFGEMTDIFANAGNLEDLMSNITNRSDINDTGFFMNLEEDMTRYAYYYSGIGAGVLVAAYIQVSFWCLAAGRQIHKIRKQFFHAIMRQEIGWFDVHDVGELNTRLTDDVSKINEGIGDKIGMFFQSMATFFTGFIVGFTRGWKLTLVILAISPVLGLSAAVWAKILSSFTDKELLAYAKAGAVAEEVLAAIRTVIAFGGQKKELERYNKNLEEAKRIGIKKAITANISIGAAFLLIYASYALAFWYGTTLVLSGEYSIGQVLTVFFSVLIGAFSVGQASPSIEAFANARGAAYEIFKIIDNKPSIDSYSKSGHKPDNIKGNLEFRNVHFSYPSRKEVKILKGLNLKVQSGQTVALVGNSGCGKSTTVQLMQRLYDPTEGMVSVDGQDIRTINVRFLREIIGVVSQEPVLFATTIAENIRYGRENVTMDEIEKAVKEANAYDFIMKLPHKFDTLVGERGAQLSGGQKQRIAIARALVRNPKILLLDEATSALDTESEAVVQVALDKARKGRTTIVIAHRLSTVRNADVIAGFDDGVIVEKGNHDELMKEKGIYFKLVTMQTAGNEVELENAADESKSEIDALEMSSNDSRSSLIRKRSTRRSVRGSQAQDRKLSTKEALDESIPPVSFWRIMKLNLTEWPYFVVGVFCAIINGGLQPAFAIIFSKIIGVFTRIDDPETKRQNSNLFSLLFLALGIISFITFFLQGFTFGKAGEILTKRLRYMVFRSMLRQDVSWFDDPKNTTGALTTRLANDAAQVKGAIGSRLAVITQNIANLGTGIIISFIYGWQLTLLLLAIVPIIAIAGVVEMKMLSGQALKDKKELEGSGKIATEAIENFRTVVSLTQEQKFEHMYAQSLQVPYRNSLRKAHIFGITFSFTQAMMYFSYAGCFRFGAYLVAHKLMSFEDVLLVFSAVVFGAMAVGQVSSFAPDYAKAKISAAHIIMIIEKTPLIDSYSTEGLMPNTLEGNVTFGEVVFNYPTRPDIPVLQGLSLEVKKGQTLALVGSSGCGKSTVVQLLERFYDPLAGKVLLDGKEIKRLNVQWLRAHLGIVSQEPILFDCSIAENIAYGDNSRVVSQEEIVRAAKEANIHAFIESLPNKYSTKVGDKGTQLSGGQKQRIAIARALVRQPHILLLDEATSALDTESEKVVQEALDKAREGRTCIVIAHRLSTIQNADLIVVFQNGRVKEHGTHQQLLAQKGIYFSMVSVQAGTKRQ
# CYP1A2 = CYP1A2 mRNA induction in cultured human hepatocytes; format: cell-based; conditions: in vitro studies
# CYP2B6 = CYP2B6 mRNA induction in cultured human hepatocytes; format: cell-based; conditions: for pEC50: human, cultured human hepatocytes
# [2] = PBPK model parameters optimized or assumed (Simcyp minimal PBPK); design: species or system human
# Source text: as §1
# [3] = Phase 1 dose escalation study (renal clearance); conditions: human, in vivo; 12 Chinese patients, 50 mg oral on Day 1
# OATP1B3 = target: T1, OATP1B3 (Homo sapiens, UniProt Q9NPD5); experiment: Transporter substrate/inhibitor assessment, OATP1B3; format: in vitro ADME
# T1 sequence (Q9NPD5 1-702): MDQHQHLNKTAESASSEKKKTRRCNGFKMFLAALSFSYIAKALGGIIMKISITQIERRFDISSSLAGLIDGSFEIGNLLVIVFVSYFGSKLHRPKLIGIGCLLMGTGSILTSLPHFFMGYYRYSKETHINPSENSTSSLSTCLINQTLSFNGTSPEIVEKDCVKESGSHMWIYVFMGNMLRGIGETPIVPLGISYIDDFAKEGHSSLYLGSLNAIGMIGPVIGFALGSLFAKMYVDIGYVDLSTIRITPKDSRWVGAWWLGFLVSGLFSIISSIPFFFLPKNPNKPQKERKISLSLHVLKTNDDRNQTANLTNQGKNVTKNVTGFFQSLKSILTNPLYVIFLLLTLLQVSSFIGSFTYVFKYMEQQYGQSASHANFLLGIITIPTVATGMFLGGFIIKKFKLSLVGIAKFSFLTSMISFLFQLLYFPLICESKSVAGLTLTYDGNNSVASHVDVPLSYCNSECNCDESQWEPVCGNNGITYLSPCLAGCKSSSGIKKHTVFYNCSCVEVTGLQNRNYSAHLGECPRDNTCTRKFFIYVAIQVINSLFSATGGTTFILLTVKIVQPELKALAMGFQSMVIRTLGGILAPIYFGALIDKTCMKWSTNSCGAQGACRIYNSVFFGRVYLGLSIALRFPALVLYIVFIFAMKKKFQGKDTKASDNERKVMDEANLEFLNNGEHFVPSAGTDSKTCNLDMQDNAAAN
# OCT2 = target: T2, OCT2 (Homo sapiens, UniProt O15244); experiment: Transporter substrate/inhibitor assessment, OCT2; format: in vitro ADME
# T2 sequence (O15244 1-555): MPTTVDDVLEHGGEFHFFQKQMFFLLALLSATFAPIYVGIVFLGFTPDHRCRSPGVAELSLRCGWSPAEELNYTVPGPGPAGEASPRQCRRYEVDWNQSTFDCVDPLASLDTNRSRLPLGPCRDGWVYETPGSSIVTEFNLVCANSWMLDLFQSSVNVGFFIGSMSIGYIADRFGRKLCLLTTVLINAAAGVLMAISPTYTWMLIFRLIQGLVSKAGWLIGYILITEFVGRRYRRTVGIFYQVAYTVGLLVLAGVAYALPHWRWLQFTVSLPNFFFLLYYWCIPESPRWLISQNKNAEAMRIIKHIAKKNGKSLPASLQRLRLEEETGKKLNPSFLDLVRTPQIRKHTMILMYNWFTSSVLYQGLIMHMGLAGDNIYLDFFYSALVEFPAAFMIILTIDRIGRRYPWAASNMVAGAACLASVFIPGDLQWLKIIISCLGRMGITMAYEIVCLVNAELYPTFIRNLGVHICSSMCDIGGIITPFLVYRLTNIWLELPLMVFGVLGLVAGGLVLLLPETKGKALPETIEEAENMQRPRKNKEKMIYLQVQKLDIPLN
# MATE1 = MATE1 (Homo sapiens, UniProt Q96FL8); experiment: Transporter substrate/inhibitor assessment, MATE1; format: in vitro ADME
# MATE1, sequence (Q96FL8 whole entry, species assumed): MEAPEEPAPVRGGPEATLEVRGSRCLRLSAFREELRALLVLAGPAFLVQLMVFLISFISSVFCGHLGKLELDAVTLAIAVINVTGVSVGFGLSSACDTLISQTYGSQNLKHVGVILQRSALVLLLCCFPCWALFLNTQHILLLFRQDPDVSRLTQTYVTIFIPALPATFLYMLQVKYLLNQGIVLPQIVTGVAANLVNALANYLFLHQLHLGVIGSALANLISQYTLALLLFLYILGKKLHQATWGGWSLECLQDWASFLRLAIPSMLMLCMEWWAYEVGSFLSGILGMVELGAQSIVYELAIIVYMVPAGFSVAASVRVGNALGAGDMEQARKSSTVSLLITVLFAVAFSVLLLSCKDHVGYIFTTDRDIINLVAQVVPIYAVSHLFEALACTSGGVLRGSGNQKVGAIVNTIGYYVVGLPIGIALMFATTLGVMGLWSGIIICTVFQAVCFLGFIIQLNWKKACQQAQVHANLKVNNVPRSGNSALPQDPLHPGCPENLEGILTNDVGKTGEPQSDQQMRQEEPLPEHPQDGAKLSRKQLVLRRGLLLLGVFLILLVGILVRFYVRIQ
# [4] = target: T3, BCRP (breast cancer resistance protein) (Homo sapiens, UniProt Q9UNQ0); experiment: BCRP substrate and in vivo inhibition assessment
# T3 sequence (Q9UNQ0 1-655): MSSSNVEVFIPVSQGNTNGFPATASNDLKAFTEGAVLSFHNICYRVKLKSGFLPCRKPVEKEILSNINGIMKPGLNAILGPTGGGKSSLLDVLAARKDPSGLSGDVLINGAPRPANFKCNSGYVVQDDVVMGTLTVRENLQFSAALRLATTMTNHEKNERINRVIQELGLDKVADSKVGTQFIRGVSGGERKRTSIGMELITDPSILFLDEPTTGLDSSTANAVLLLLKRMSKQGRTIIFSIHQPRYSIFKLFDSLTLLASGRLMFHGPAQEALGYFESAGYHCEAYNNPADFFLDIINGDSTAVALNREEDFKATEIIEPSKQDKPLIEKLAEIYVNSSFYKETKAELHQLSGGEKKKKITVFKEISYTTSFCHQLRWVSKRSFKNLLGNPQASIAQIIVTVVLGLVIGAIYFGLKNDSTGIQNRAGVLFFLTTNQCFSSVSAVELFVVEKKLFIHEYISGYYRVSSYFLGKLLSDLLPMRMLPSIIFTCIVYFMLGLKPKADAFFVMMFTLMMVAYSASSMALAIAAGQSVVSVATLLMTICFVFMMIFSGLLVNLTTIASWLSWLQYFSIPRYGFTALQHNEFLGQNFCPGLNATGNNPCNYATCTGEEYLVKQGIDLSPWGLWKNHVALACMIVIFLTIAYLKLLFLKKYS
# Source text: The effects of transporters expressed on the gut and liver have not been investigated.
# CYP2C9 = experiment: in vitro; conditions: human
# [5] = Fasting, optimized based on observed data
# [6] = Fed, optimized based on observed data
# [7] = optimized based on observed data
compound,measurement,setting,value
"Cc1ccc(C(=O)Nc2ccc(CN3CCN(C)CC3)c(C(F)(F)F)c2)cc1C#Cc1cnc2[nH]ncc2c1 [olverembatinib, Olverembatinib]",Papp,[1],0.08 ×10⁻⁶ cm/s
same,pKi,P-gp,5.65
same,"CYP1A2 induction, strength",CYP1A2,weak
same,pEC50,"CYP2B6; CYP2B6 mRNA, lot AIH, read-out: EC50",6.08
same,pEC50,"CYP2B6; CYP2B6 mRNA, lot HUM182851, read-out: EC50",6.54
same,pEC50,"CYP2B6; human hepatocytes, mRNA, mean of two lots, read-out: IndC50 CYP2B6 (Mean EC50)",6.25
same,"CYP2B6 induction, strength",CYP2B6; in vitro studies,weak
same,fa,[2]; [5],0.574 (Fasting)
same,ka,[2]; [5],0.213 (Fasting) 1/h
same,fa,[2]; [6],0.8 (Fed)
same,ka,[2]; [6],0.136 (Fed) 1/h
same,fraction unbound,"[2]; human, microsomal incubation, assumed equal to fu,p, read-out: fu,mic/fu,inc",0.0005
same,Kp,"[2]; human, optimized based on observed data, read-out: Kp Scalar",6.01
same,ISEF CYP2C9,[2]; optimized based on fmCYP2C9,1.2938
same,ISEF CYP3A4,[2]; optimized based on fmCYP3A4,0.7761
same,SAC kin,[2]; [7],0.0471 h⁻¹
same,SAC kout,[2]; [7],0.0177 h⁻¹
same,Vsac,[2]; [7],38.02 L/kg
same,CL renal,[3],2.2 mL/min
same,substrate or inhibitor of OATP1B3,OATP1B3,neither a substrate nor inhibitor
same,substrate or inhibitor of OCT2,OCT2,neither a substrate nor inhibitor
same,substrate or inhibitor of MATE1,MATE1,neither a substrate nor inhibitor
same,in vivo inhibition on BCRP,[4],no obvious in vivo inhibition
same,substrate of BCRP,[4],is a substrate
same,pEC50,CYP2C9; EC50,6.23
same,pEC50,CYP2C9; IndC50 CYP2C9 (Mean EC50),6.34
